Experimental data reported in ChEMBL document CHEMBL3885861, “Open TG-GATES”.

Species on record: Rattus norvegicus
Experiment: Open TG-GATES - Regimen: Daily Repeat
Type: toxicity, organism-based, Sprague-Dawley
Parameters: regimen Daily Repeat, gender Male, age 6 weeks
Conditions: in vivo, po, 200 mg/kg, route gavage, dose level Middle; for APTT / Bas / Eos / Fbg / Hb / Ht / Lym / MCH / MCHC / MCV / Mono / Neu / PT / Plat / RBC / Ret / WBC: tissue Blood; for KIDNEY_L / KIDNEY_R / KIDNEY_TOTAL: tissue Kidney; for LIVER: tissue Liver; for A/G / ALP / ALT / AST / BUN / CRE / Ca / Cl / DBIL / GLC / IP / K / LDH / Na / PL / RALB / TBIL / TC / TG / TP / gamma-GTP: tissue Plasma

`CCOC(=O)[C@H](CCc1ccccc1)N[C@@H](C)C(=O)N1CCC[C@H]1C(=O)O` gave a TERMINAL_BW (72 h, time 3 day) of 240.7 g, an APTT (72 h, time 3 day) of 15.8 s and a Bas (72 h, time 3 day) of 0%. For the same compound, the Eos (72 h, time 3 day) was 1%, the Fbg (72 h, time 3 day) was 231 mg/dL and the Hb (72 h, time 3 day) was 13.2 g/dL. For the same compound, the Ht (72 h, time 3 day) was 40.1%, the Lym (72 h, time 3 day) was 78% and the MCH (72 h, time 3 day) was 21.9 pg. For the same compound, the MCHC (72 h, time 3 day) was 32.9%, the MCV (72 h, time 3 day) was 66.6 fL and the Mono (72 h, time 3 day) was 8.4%. For the same compound, the Neu (72 h, time 3 day) was 12.6%, the PT (72 h, time 3 day) was 11.8 s and the Plat (72 h, time 3 day) was 114.3 x10_4/uL. It also gave an RBC (72 h, time 3 day) of 601.8 x10_4/ul, a Ret (72 h, time 3 day) of 5.9% and a WBC (72 h, time 3 day) of 85.6 x10_2/uL. The KIDNEY_L (72 h, time 3 day) was 1.1 g, the KIDNEY_R (72 h, time 3 day) was 1.1 g and the KIDNEY_TOTAL (72 h, time 3 day) was 2.2 g. It also gave an LIVER (72 h, time 3 day) of 11.8 g, an A/G (72 h, time 3 day) of 2 and an ALP (72 h, time 3 day) of 912.6 IU/L. For the same compound, the ALT (72 h, time 3 day) was 35 IU/L, the AST (72 h, time 3 day) was 65.2 IU/L and the BUN (72 h, time 3 day) was 19.4 mg/dL. It also gave a CRE (72 h, time 3 day) of 0.5 mg/dL, a Ca (72 h, time 3 day) of 11 mg/dL and a Cl (72 h, time 3 day) of 104.4 meq/L. It also gave a DBIL (72 h, time 3 day) of 0.03 mg/dL, a GLC (72 h, time 3 day) of 193 mg/dL and an IP (72 h, time 3 day) of 8.7 mg/dL. It also gave a K (72 h, time 3 day) of 4.3 meq/L, an LDH (72 h, time 3 day) of 98.2 IU/L and a Na (72 h, time 3 day) of 140.8 meq/L. For the same compound, the PL (72 h, time 3 day) was 146 mg/dL, the RALB (72 h, time 3 day) was 4 g/dL and the TBIL (72 h, time 3 day) was 0.4 mg/dL. The TC (72 h, time 3 day) was 81.4 mg/dL, the TG (72 h, time 3 day) was 81.2 mg/dL and the TP (72 h, time 3 day) was 6 g/dL. The gamma-GTP (72 h, time 3 day) was 1.4 IU/L, the TERMINAL_BW ([…], time 7 day) was 259.9 g and the TERMINAL_BW ([…], time 14 day) was 304.7 g. It also gave a TERMINAL_BW ([…], time 28 day) of 336 g, an APTT ([…], time 7 day) of 16.8 s and a Bas ([…], time 7 day) of 0%. For the same compound, the Eos ([…], time 7 day) was 1%, the Fbg ([…], time 7 day) was 228 mg/dL and the Hb ([…], time 7 day) was 13.3 g/dL. The Ht ([…], time 7 day) was 40.2%, the Lym ([…], time 7 day) was 81.8% and the MCH ([…], time 7 day) was 20.4 pg. For the same compound, the MCHC ([…], time 7 day) was 33.1%, the MCV ([…], time 7 day) was 61.7 fL and the Mono ([…], time 7 day) was 6.2%. It also gave a Neu ([…], time 7 day) of 10.8%, a PT ([…], time 7 day) of 11.6 s and a Plat ([…], time 7 day) of 123.3 x10_4/uL. It also gave an RBC ([…], time 7 day) of 651.6 x10_4/ul, a Ret ([…], time 7 day) of 4.1% and a WBC ([…], time 7 day) of 108.2 x10_2/uL. It also gave an APTT ([…], time 14 day) of 16.2 s, a Bas ([…], time 14 day) of 0% and an Eos ([…], time 14 day) of 1.2%. For the same compound, the Fbg ([…], time 14 day) was 242.2 mg/dL, the Hb ([…], time 14 day) was 13.4 g/dL and the Ht ([…], time 14 day) was 40.5%. It also gave a Lym ([…], time 14 day) of 81%, an MCH ([…], time 14 day) of 20.2 pg and an MCHC ([…], time 14 day) of 33.2%. For the same compound, the MCV ([…], time 14 day) was 60.8 fL, the Mono ([…], time 14 day) was 6% and the Neu ([…], time 14 day) was 12%. The PT ([…], time 14 day) was 11.5 s, the Plat ([…], time 14 day) was 113 x10_4/uL and the RBC ([…], time 14 day) was 666.8 x10_4/ul. The Ret ([…], time 14 day) was 3.6%, the WBC ([…], time 14 day) was 116.4 x10_2/uL and the APTT ([…], time 28 day) was 15.5 s. It also gave a Bas ([…], time 28 day) of 0%, an Eos ([…], time 28 day) of 1% and a Fbg ([…], time 28 day) of 240.2 mg/dL. For the same compound, the Hb ([…], time 28 day) was 14.3 g/dL, the Ht ([…], time 28 day) was 42.9% and the Lym ([…], time 28 day) was 87.4%. For the same compound, the MCH ([…], time 28 day) was 19 pg, the MCHC ([…], time 28 day) was 33.3% and the MCV ([…], time 28 day) was 57.1 fL. For the same compound, the Mono ([…], time 28 day) was 4.2%, the Neu ([…], time 28 day) was 7.4% and the PT ([…], time 28 day) was 11.8 s. For the same compound, the Plat ([…], time 28 day) was 101.7 x10_4/uL, the RBC ([…], time 28 day) was 752.2 x10_4/ul and the Ret ([…], time 28 day) was 3.4%. It also gave a WBC ([…], time 28 day) of 172.8 x10_2/uL, a KIDNEY_L ([…], time 7 day) of 1.2 g and a KIDNEY_R ([…], time 7 day) of 1.2 g. For the same compound, the KIDNEY_TOTAL ([…], time 7 day) was 2.4 g, the KIDNEY_L ([…], time 14 day) was 1.3 g and the KIDNEY_R ([…], time 14 day) was 1.3 g. The KIDNEY_TOTAL ([…], time 14 day) was 2.6 g, the KIDNEY_L ([…], time 28 day) was 1.4 g and the KIDNEY_R ([…], time 28 day) was 1.4 g. It also gave a KIDNEY_TOTAL ([…], time 28 day) of 2.9 g, an LIVER ([…], time 7 day) of 11.6 g and an LIVER ([…], time 14 day) of 12.7 g. It also gave an LIVER ([…], time 28 day) of 12.8 g, an A/G ([…], time 7 day) of 2.2 and an ALP ([…], time 7 day) of 881.8 IU/L. It also gave an ALT ([…], time 7 day) of 27.4 IU/L, an AST ([…], time 7 day) of 56.8 IU/L and a BUN ([…], time 7 day) of 24 mg/dL. The CRE ([…], time 7 day) was 0.5 mg/dL, the Ca ([…], time 7 day) was 10.3 mg/dL and the Cl ([…], time 7 day) was 104.4 meq/L. It also gave a DBIL ([…], time 7 day) of 0.002 mg/dL, a GLC ([…], time 7 day) of 207.4 mg/dL and an IP ([…], time 7 day) of 8.4 mg/dL. For the same compound, the K ([…], time 7 day) was 4.7 meq/L, the LDH ([…], time 7 day) was 88.8 IU/L and the Na ([…], time 7 day) was 136.6 meq/L. The PL ([…], time 7 day) was 141.6 mg/dL, the RALB ([…], time 7 day) was 3.9 g/dL and the TBIL ([…], time 7 day) was 0.4 mg/dL. For the same compound, the TC ([…], time 7 day) was 74.6 mg/dL, the TG ([…], time 7 day) was 81.8 mg/dL and the TP ([…], time 7 day) was 5.7 g/dL. For the same compound, the gamma-GTP ([…], time 7 day) was 1.4 IU/L, the A/G ([…], time 14 day) was 1.9 and the ALP ([…], time 14 day) was 760.4 IU/L. It also gave an ALT ([…], time 14 day) of 28.4 IU/L, an AST ([…], time 14 day) of 57.2 IU/L and a BUN ([…], time 14 day) of 27.6 mg/dL. For the same compound, the CRE ([…], time 14 day) was 0.6 mg/dL, the Ca ([…], time 14 day) was 10.8 mg/dL and the Cl ([…], time 14 day) was 105.6 meq/L. It also gave a DBIL ([…], time 14 day) of 0.008 mg/dL, a GLC ([…], time 14 day) of 194.8 mg/dL and an IP ([…], time 14 day) of 8.3 mg/dL. For the same compound, the K ([…], time 14 day) was 4.6 meq/L, the LDH ([…], time 14 day) was 86.2 IU/L and the Na ([…], time 14 day) was 138 meq/L. For the same compound, the PL ([…], time 14 day) was 154.8 mg/dL, the RALB ([…], time 14 day) was 3.9 g/dL and the TBIL ([…], time 14 day) was 0.3 mg/dL. It also gave a TC ([…], time 14 day) of 83 mg/dL, a TG ([…], time 14 day) of 83.2 mg/dL and a TP ([…], time 14 day) of 6.1 g/dL. For the same compound, the gamma-GTP ([…], time 14 day) was 1.2 IU/L, the A/G ([…], time 28 day) was 1.8 and the ALP ([…], time 28 day) was 617.8 IU/L. It also gave an ALT ([…], time 28 day) of 24 IU/L, an AST ([…], time 28 day) of 55.4 IU/L and a BUN ([…], time 28 day) of 45.2 mg/dL. For the same compound, the CRE ([…], time 28 day) was 0.7 mg/dL, the Ca ([…], time 28 day) was 10.2 mg/dL and the Cl ([…], time 28 day) was 105.8 meq/L. It also gave a DBIL ([…], time 28 day) of 0.078 mg/dL, a GLC ([…], time 28 day) of 206 mg/dL and an IP ([…], time 28 day) of 7.5 mg/dL. It also gave a K ([…], time 28 day) of 4.8 meq/L, an LDH ([…], time 28 day) of 62.4 IU/L and a Na ([…], time 28 day) of 137.6 meq/L. For the same compound, the PL ([…], time 28 day) was 145.6 mg/dL, the RALB ([…], time 28 day) was 3.8 g/dL and the TBIL ([…], time 28 day) was 0.3 mg/dL. It also gave a TC ([…], time 28 day) of 77 mg/dL, a TG ([…], time 28 day) of 87.2 mg/dL and a TP ([…], time 28 day) of 5.9 g/dL. For the same compound, the gamma-GTP ([…], time 28 day) was 2.2 IU/L.
